Test results reported in ChEMBL document CHEMBL6153034, “Synthesis of dolutegravir derivatives modified by 1,2,3-triazole structure and their anti-inflammatory activity in LPS-induced BV2 cells” (Bioorg Med Chem Lett, 2025).
pIC50: −log10 of the molar value. Active and inactive are the calls of the source. No cut-off for these calls is given here.

Tests used:
BV-2 [1] = experiment: Antiinflammatory activity in LPS induced mouse BV-2 cells assessed as NO production at 1 uM by Griess reagent based assay relative to control
BV-2 [2] = experiment: Antiinflammatory activity in LPS-induced mouse BV-2 cells assessed as decrease in IL-6 production preincubated for 2 hrs followed by LPS addition and measured after 24 hrs by qRT-PCR analysis; type: functional, cell-based; details: dose 5-10 µM, time 26.0 hrs
[3] = Cytotoxicity against mouse BV-2 cells assessed as cell viability at 1 uM by MTT assay relative to control; type: toxicity, cell-based; details: read-out: Activity
[4] = Acute toxicity in male Kunming mouse assessed as histopathological changes in liver at 250 mg/kg administered via gavage by H and E staining based analysis; type: organism-based; details: in vivo, po
BV-2 [5] = experiment: Antiinflammatory activity in LPS induced mouse BV-2 cells assessed as downregulation of IL-6 mRNA expression level preincubated for 2 hrs followed by LPS addition and measured after 24 hrs by qRT-PCR analysis; type: functional, cell-based; details: dose 5-10 µM, time 26.0 hrs
BV-2 [6] = experiment: Inhibition of LPS-induced nuclear translocation of p-STAT1 in mouse BV-2 cells at 10 uM preincubated for 2 hrs followed LPS addition and measured after 3 hrs by Western blot analysis; type: functional, cell-based; details: time 5.0 hrs
[7] = Acute toxicity in female Kunming mouse assessed as effect on GPT level in blood at 250 mg/kg administered via gavage by biochemical analysis; type: organism-based; details: in vivo, po
BV-2 [8] = experiment: Inhibition of LPS-induced nuclear translocation of p-STAT3 in mouse BV-2 cells at 10 uM preincubated for 2 hrs followed LPS addition and measured after 3 hrs by DAPI staining based immunofluorescence assay; type: functional, cell-based; details: time 5.0 hrs
BV-2 [9] = experiment: Antiinflammatory activity in LPS-induced mouse BV-2 cells assessed as downregulation of iNOS protein expression level preincubated for 2 hrs followed by LPS addition and measured after 24 hrs by Western blot analysis; type: functional, cell-based; details: dose 5-10 µM, time 26.0 hrs
BV-2 [10] = experiment: Antiinflammatory activity in LPS-induced mouse BV-2 cells assessed as reduction in NO production preincubated for 2 hrs followed by LPS addition and measured after 24 hrs by Griess reagent based analysis; type: functional, cell-based; details: dose 5-10 µM, time 26.0 hrs
[11] = Acute toxicity in male Kunming mouse assessed as effect on organ coefficient of lung at 250 mg/kg administered via gavage; type: organism-based; details: in vivo, po
[12] = Acute toxicity in male Kunming mouse assessed as histopathological changes in heart at 250 mg/kg administered via gavage by H and E staining based analysis; type: organism-based; details: in vivo, po
[13] = Acute toxicity in female Kunming mouse assessed as histopathological changes in kidney at 250 mg/kg administered via gavage by H and E staining based analysis; type: organism-based; details: in vivo, po
[14] = Acute toxicity in female Kunming mouse assessed as effect on organ coefficient of lung at 250 mg/kg administered via gavage; type: organism-based; details: in vivo, po
[15] = Acute toxicity in female Kunming mouse assessed as histopathological changes in liver at 250 mg/kg administered via gavage by H and E staining based analysis; type: organism-based; details: in vivo, po
[16] = Acute toxicity in female Kunming mouse assessed as histopathological changes in heart at 250 mg/kg administered via gavage by H and E staining based analysis; type: organism-based; details: in vivo, po
[17] = target: Signal transducer and activator of transcription 3 (Mus musculus) (UniProt P42227); experiment: Inhibition of STAT3 phosphorylation at Tyr705 residue in LPS-induced mouse BV-2 cells at 5 to 10 uM preincubated for 2 hrs followed by LPS addition and measured after 3 hrs by Western blot analysis; type: cell-based; details: dose 5-10 µM, time 5.0 hrs
Chain of Signal transducer and activator of transcription 3 (Mus musculus) (P42227 whole entry): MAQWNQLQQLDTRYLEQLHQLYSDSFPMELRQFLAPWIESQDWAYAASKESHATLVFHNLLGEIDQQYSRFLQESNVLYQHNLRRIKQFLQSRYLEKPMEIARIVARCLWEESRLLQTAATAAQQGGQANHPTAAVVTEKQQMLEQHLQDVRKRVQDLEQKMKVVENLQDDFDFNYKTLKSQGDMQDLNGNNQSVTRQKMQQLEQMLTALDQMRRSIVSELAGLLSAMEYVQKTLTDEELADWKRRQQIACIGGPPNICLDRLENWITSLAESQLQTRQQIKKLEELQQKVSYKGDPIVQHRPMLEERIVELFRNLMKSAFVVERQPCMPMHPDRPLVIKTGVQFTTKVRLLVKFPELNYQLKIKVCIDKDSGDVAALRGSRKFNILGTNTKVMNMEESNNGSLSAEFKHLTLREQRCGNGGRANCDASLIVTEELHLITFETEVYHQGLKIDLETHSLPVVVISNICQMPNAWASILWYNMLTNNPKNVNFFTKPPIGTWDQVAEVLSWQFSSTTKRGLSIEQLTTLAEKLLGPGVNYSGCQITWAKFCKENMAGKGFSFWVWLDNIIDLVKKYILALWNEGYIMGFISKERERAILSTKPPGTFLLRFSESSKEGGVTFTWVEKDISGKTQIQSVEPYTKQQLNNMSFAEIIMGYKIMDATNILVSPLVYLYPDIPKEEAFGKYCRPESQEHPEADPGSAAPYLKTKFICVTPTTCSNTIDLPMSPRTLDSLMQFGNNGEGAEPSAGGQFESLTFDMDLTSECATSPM

[18] = Acute toxicity in female Kunming mouse assessed as histopathological changes in lung at 250 mg/kg administered via gavage by H and E staining based analysis; type: organism-based; details: in vivo, po
BV-2 [19] = experiment: Antiinflammatory activity in LPS-induced mouse BV-2 cells assessed as decrease in TNF-alpha production preincubated for 2 hrs followed by LPS addition and measured after 24 hrs by qRT-PCR analysis; type: functional, cell-based; details: dose 5-10 µM, time 26.0 hrs
[20] = Acute toxicity in male Kunming mouse assessed as effect on organ coefficient of heart at 250 mg/kg administered via gavage; type: organism-based; details: in vivo, po
[21] = Acute toxicity in male Kunming mouse assessed as histopathological changes in kidney at 250 mg/kg administered via gavage by H and E staining based analysis; type: organism-based; details: in vivo, po
BV-2 [22] = experiment: Antiinflammatory activity in LPS induced mouse BV-2 cells assessed as downregulation of IL-1beta mRNA expression level preincubated for 2 hrs followed by LPS addition and measured after 24 hrs by qRT-PCR analysis; type: functional, cell-based; details: dose 5-10 µM, time 26.0 hrs
BV-2 [23] = experiment: Antiinflammatory activity in LPS-induced mouse BV-2 cells assessed as downregulation of COX-2 protein expression level preincubated for 2 hrs followed by LPS addition and measured after 24 hrs by Western blot analysis; type: functional, cell-based; details: dose 5-10 µM, time 26.0 hrs
[24] = Acute toxicity in male Kunming mouse assessed as increase in GPT level in blood at 250 mg/kg administered via gavage by biochemical analysis; type: organism-based; details: in vivo, po
[25] = Acute toxicity in male Kunming mouse assessed as effect on organ coefficient of liver at 250 mg/kg administered via gavage; type: organism-based; details: in vivo, po
BV-2 [26] = experiment: Antiinflammatory activity in LPS-induced mouse BV-2 cells assessed as downregulation of COX2 mRNA expression level at 5 to 10 uM preincubated for 2 hrs followed by LPS addition and measured after 6 hrs by qRT-PCR analysis; type: functional, cell-based; details: dose 5-10 µM, time 8.0 hrs
BV-2 [27] = experiment: Antiinflammatory activity in LPS induced mouse BV-2 cells assessed as NO production at 10 uM by Griess reagent based assay relative to control
BV-2 [28] = experiment: Antiinflammatory activity in LPS induced mouse BV-2 cells assessed as inhibition of NO production by Griess reagent based assay; type: functional, cell-based
[29] = Acute toxicity in male Kunming mouse assessed as histopathological changes in spleen at 250 mg/kg administered via gavage by H and E staining based analysis; type: organism-based; details: in vivo, po
BV-2 [30] = experiment: Inhibition of LPS-induced nuclear translocation of p-STAT3 in mouse BV-2 cells at 10 uM preincubated for 2 hrs followed LPS addition and measured after 3 hrs by Western blot analysis; type: functional, cell-based; details: time 5.0 hrs
[31] = Acute toxicity in female Kunming mouse assessed as effect on organ coefficient of heart at 250 mg/kg administered via gavage; type: organism-based; details: in vivo, po
[32] = Acute toxicity in female Kunming mouse assessed as effect on organ coefficient of liver at 250 mg/kg administered via gavage; type: organism-based; details: in vivo, po

## COc1c2n(cc(C(=O)Nc3cccc(-c4cn(-c5ccccc5Cl)nn4)c3)c1=O)C[C@@H]1OCC[C@@H](C)N1C2=O
BV-2 [1]
  level, % of control at 1 µM: 71%
BV-2 [2]
  Activity: Dose-dependent-effect
[3]
  viability at 1 µM: 88%
[4]
  Activity: Non-toxic
BV-2 [5]
  Activity: Dose-dependent-effect
BV-2 [6]
  inhibition: Active
[7]
  Activity: Non-toxic
BV-2 [8]
  inhibition: Active
BV-2 [9]
  Activity: Dose-dependent-effect
BV-2 [10]
  Activity: Dose-dependent-effect
[11]
  Activity: Non-toxic
[12]
  Activity: Non-toxic
[13]
  Activity: Non-toxic
[14]
  Activity: Non-toxic
[15]
  Activity: Non-toxic
[16]
  Activity: Non-toxic
[17]
  inhibition: Active
[18]
  Activity: Non-toxic
BV-2 [19]
  Activity: Dose-dependent-effect
[20]
  Activity: Non-toxic
[21]
  Activity: Non-toxic
BV-2 [22]
  Activity: Dose-dependent-effect
BV-2 [23]
  Activity: Dose-dependent-effect
[24]
  Activity: Toxic
[25]
  Activity: Non-toxic
BV-2 [26]
  Activity: Active
BV-2 [27]
  level, % of control at 10 µM: 43%
BV-2 [28]
  pIC50: 5.35
[29]
  Activity: Non-toxic
BV-2 [30]
  inhibition: Active
[31]
  Activity: Non-toxic
[32]
  Activity: Non-toxic
